Test results: PubChem BioAssay (NCI)
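96-well plates; 48 h exposure; 5 concentrations. Endpoints by linear interpolation between flanking doses. Not reached: highest tested concentration assigned. GI50 is the concentration that inhibits growth by half. At the TGI there is no net growth.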

Key:
Assay in all cases: NCI anticancer screen, dose series, 48 h
MDA-MB-231 breast = tested on: MDA-MB-231 breast
RXF 393 renal = tested on: RXF 393 renal
IGROV1 ovarian = tested on: IGROV1 ovarian
EKVX NSCLC = tested on: EKVX NSCLC
HCT-116 colon = tested on: HCT-116 colon
UACC-257 melanoma = tested on: UACC-257 melanoma
HOP-62 NSCLC = tested on: HOP-62 NSCLC
LOX IMVI melanoma = tested on: LOX IMVI melanoma
SF-539 CNS = tested on: SF-539 CNS
HCT-15 colon = tested on: HCT-15 colon

Structure (SMILES)	TGI (MDA-MB-231 breast) [µM]	TGI (RXF 393 renal) [µM]	TGI (IGROV1 ovarian) [µM]	TGI (EKVX NSCLC) [µM]	TGI (HCT-116 colon) [µM]	TGI (UACC-257 melanoma) [µM]	TGI (HOP-62 NSCLC) [µM]	TGI (LOX IMVI melanoma) [µM]	TGI (SF-539 CNS) [µM]	TGI (HCT-15 colon) [µM]	GI50 (MDA-MB-231 breast) [µM]	GI50 (RXF 393 renal) [µM]	GI50 (IGROV1 ovarian) [µM]	GI50 (EKVX NSCLC) [µM]	GI50 (HCT-116 colon) [µM]	GI50 (UACC-257 melanoma) [µM]	GI50 (HOP-62 NSCLC) [µM]	GI50 (LOX IMVI melanoma) [µM]	GI50 (SF-539 CNS) [µM]	GI50 (HCT-15 colon) [µM]
O=C1CSC(/C(=C\c2ccc(Cl)cc2)c2nc3ccccc3[nH]2)=N1	28.3	2.14	22.4	32.2	30.4	34.7	5.82	32.4	2.06	52.4										
C#CC1(O)C(COP(=O)(O)OC2CC(n3cc(F)c(=O)[nH]c3=O)OC2CO)OC(n2ccc(N)nc2=O)C1O (stereo not drawn)	> 61.9	2.37	> 35.9	16	> 100	2.18	> 100	1.87	0.22	> 38.9	0.0731	< 0.0342	< 0.0139	0.738	< 0.01	0.0663	< 0.01	< 0.01	< 0.0105	< 0.01
CCCCCCCCCCN(CCCCCCCCCC)CC(=O)c1ccc2cc(Br)c3ccccc3c2c1	3.26	3.5	3.6	19.8	3.17	4.4	3.4	3.32	3.7	3.34	1.67	1.98	1.84	5.31	1.67	2.11	1.63	1.75	2.05	1.52
NNc1nc2ccccc2c(=O)n1NC(=O)C(=O)Nc1cccc(C(F)(F)F)c1	> 100	> 100	> 100	> 100	> 100	> 100	> 100	> 100	> 100	> 100										
COC(=O)c1sc(C(=O)OC)c2c1CSC2	> 100	> 97.1	> 100	> 100	> 100	> 100	> 100	> 100	> 100	> 100										
OCC1OC(n2ccc3c(NO)ncnc32)C(O)C1O (stereo not drawn)		1.14	1.17	0.994	1.03	0.866	2.51	1.27	1.29	1.52	0.233	0.163	0.088	0.241	0.0296	0.232	0.219	0.0665	0.288	0.118
O=C(Nc1ccc(F)cc1)c1c(NC(=O)C(F)(F)F)sc2c1CCCCC2	7.3	6.56	15.5		10.3	7.17	6.48	13.2	11.8	10.8	1.75	1.75	2.99		2.05	2.21	2.26	2.43	2.04	2.59
COC1CC2C=C(C)/C=C/C=C/C(=O)NC(c3ccccc3)C/C=C/CCC(O)CC(=O)C2=C1O (stereo not drawn)	0.961	1.09	1.84		1.22	0.577	1.53	1.22	0.912	1.29	0.27	0.314	0.444		0.272	0.186	0.275	0.297	0.28	0.274
O=C(NCCCNc1cc(-c2cn(-c3ccccc3)nc2-c2cccc(O)c2)ccn1)c1ccccc1	5.4	6.2	59.6	> 100	17	4.4	14.1	6.36	10.3	5.12	2.34	1.97	4.2	3.16	3.58	2.07	3.79	2.25	3.02	1.51
CCOC(=O)C(=Cc1ccccc1[N+](=O)[O-])C(=O)OCC	7.59	2.78	15.4	20.9	7.56	14.3	12.9	3.51	9.32	4.47	2.48	1.33	3.77	6.61	2.53	3.25	3.48	1.58	3.55	1.83
CCOC(=O)c1[nH]c(-c2ccc(Cl)cc2)cc1-c1cccnc1	> 100	7.23	> 100	> 100	> 100	> 100	> 100	> 100	7.14	> 100	1.67	1.27	1.37	1.35	0.387	> 100	0.868	0.659	0.423	0.437
CC/C=C\C[C@H](O)C/C=C1/C(=O)C=C[C@@H]1C/C=C\CCCC(=O)N(C)C	8.95	3.26	11.2	15.6	1.68	7.31	8.35	1.54	7.14	5.87	3.12	1.73	3.3	3.92	0.44	2.37	1.99	0.356	2.18	1.29
Cc1cc(C)c(C[N+](C)(C)C)c(C)c1C	25.8	3.43	> 95.7		24.8	6.69	7.59	9.13	4.86	19.4	0.471	0.249	0.477		0.32	0.465	0.323	0.306	0.292	0.313
NNc1cccc(/C=C/c2ccccc2)cc1=O	> 100	> 100	46.1	35.8	> 100	> 100	> 100	> 100	> 100	> 100	4.73	46.5	4.26	3.27	7.3	26.7	9.3	5.07	23	3.8
